Patent publication US4305872A, “Polypeptide derivatives” (priority 1979, dated 1981)

Experiments:
[1] = system: TRH-Induced Release of Radioactive (125I) Iodide from the Thyroid; assay: McKenzie Bioassay for TRH-Induced Release of Radioactive (125I) Iodide from the Thyroid; assay type: in vivo, Long-Evans male rats; conditions: worked Example; for (I-125) cpm/200 ul blood at THR: tail vein; for Δ cpm: net of saline control
Procedure: 16 Long-Evans male rats were maintained on an iodine deficient diet for 1 week. Each rat was then injected intraperitoneally (i.p.) with 20 μCi of radioactive (Na^125 I). Six hours before injection of the material to be tested, the animals were given 0.03% propylthioluracil (PTU) in their drinking water. This prevents the re-uptake of released ^125 I (iodoproteins such as mono- and diodo-tyrosines, T3 or T4) once they are released from the thyroid under the influence of TRH or TRH analogue. 24 hrs. after administration of the radioactive iodine (0.2 ml) 200 μl of blood was withdrawn from the tail vein of each rat, transferred quantitatively into a 12×75 mm test tube containing 1 ml of 0.9% saline and the ^125 I content counted by use of a Beckmann γ-ray spectrometer. One ml of TRH or TRH analogue dissolved in 0.9% NaCl (physiologic saline) was injected into the tail vein of each of four rats per dose considered (e.g. 0.4 μgm, 40 μgm, 80 μgm). 1 ml of 0.9% NaCl (physiologic saline) was injected also to each of four rats to serve as a control for stress-related influence (trauma from blood collecting procedure and anesthesia) on release of ^125 I from the thyroid gland. Once the saline control or designated dose of TRH or TRH analogue has been injected, blood samples (0.2 ml) are collected from the tail vein of each rat at 30 minutes, 1 hr, 2 hrs, and 3 hrs. and the ^125 I content evaluated as described above. Upon completion of the experiment, animals are kept for a 24 hr time period to observe any adverse toxicological effects. If they maintain their usual behavior (vital signs), it is assumed the compounds tested cause no overt physiological effects.
An increase in I-125 content above the basal level, as exemplified by the saline control, indicates a TRH induced release of TSH (thyrotropin stimulating hormone) which in turn causes release of I-125 from the thyroid. This type of response means the […] hormone physiologic mechanism (hypothalamo-pituitary-thyroid axis) is working properly, and the animals are suitable for testing. […] For each dose level considered, the radio-activity content of I-125 (cpm) per 200 μl of blood is evaluated at each time period and subtracted from the saline control radioactivity (I-125) content to obtain the Δ cpm released from thyroid. The net cpm released is therefore evaluated, rather than the absolute radio-activity for each time period and dose level.
To evaluate the effect of TRH analogues (TRH-CMK or TRH-DMK) on the TRH-TSH release of I-125 from the thyroid, each animal of a test group (4 animals) was injected with 1 ml of a given dose of the TRH analogue into the tail vein. […] Blood samples (0.2 ml) were then collected at various times (e.g. 1/2, 1 hr, 2 hrs, etc.) and evaluated for their I-125 content. […]

Serum TSH level = assay: 6 Point Parallel Line Assay, serum TSH level after inhibitor then TRH; assay type: in vivo; conditions: no inhibitor (saline injected)
Procedure: (§1) 6 Point Parallel Line Assay Design:
(§2) 3 sample, 3 standard samples
(§3) Responses expressed in (Ng/ml)
(§4) Animals challenged with peptide derivative dissolved in 0.85% NaCl.
(§5) Total Injection Volume: 0.25 ml
(§6) Anatomical Site of Injection: Jugular vein
(§7) Samples obtained by subjecting animal to ether anesthesia, and sacrificing animal.
(§8) Each animal was injected via jugular vein 0.25 ml of peptide derivative: to insure sample was injected into vein, the syringe plunger was gently retracted, if blood could be withdrawn, then the sample was injected. Following injection, the syringe was rinsed with blood and injected. 1/2-hour following injection of the peptide derivative, using the same procedure, a TRH dose-response curve was made using the same injection technique.
(§9) 0 time--injection of TRH derivative (80 ugm)
(§10) 1/2 hr.--injection of TRH (4, 40, and 80 ugm)
(§11) 1 hrs.--blood sample collected

Serum Prolactin Level = assay: 6 Point Parallel Line Assay, serum prolactin level after inhibitor then TRH; assay type: in vivo; conditions: no inhibitor (saline injected)
Procedure: as §1, §2, §3, §4, §5, §6, §7, §8, §9, §10, §11

[2] = system: guinea pig ileum (opiate receptor site); assay: Guinea pig ileum (GPI) assay for enkephalin activity, electrically stimulated contractions; conditions: specificity controls; FIGS. 6-9

Compound: NC(=O)[C@@H]1CCCN1C(=O)[C@H](Cc1c[nH]cn1)NC(=O)[C@@H]1CCC(=O)N1 [TRH, L-pyroglutamyl-L-histidyl-L-prolinamide]
- (I-125) cpm/200 ul blood at THR ([1]; 0.4 μgm TRH): 261 cpm/200 ul
- Δ cpm ([1]; 0.4 μgm TRH): +141 cpm
- (I-125) cpm/200 ul blood at THR ([1]; 4 μgm TRH): 358 cpm/200 ul
- Δ cpm ([1]; 4 μgm TRH): +238 cpm
- Serum TSH level (Serum TSH level; FIRST EXPERIMENT, TRH 4 μg): 312 ng/mL
- Serum TSH level (Serum TSH level; FIRST EXPERIMENT, TRH 40 μg): 412 ng/mL
- Serum TSH level (Serum TSH level; FIRST EXPERIMENT, TRH 80 μg): 1139 ng/mL
- Serum TSH level (Serum TSH level; SECOND EXPERIMENT, TRH 4 μg): 167 ng/mL
- Serum TSH level (Serum TSH level; SECOND EXPERIMENT, TRH 40 μg): 612 ng/mL
- Serum TSH level (Serum TSH level; SECOND EXPERIMENT, TRH 80 μg): 839 ng/mL
- Serum Prolactin Level (Serum Prolactin Level; FIRST EXPERIMENT, TRH 4 μg): 61 ng/mL
- Serum Prolactin Level (Serum Prolactin Level; FIRST EXPERIMENT, TRH 40 μg): 76 ng/mL
- Serum Prolactin Level (Serum Prolactin Level; FIRST EXPERIMENT, TRH 80 μg): 216 ng/mL
- Serum Prolactin Level (Serum Prolactin Level; SECOND EXPERIMENT, TRH 4 μg): 46 ng/mL
- Serum Prolactin Level (Serum Prolactin Level; SECOND EXPERIMENT, TRH 40 μg): 150 ng/mL
- Serum Prolactin Level (Serum Prolactin Level; SECOND EXPERIMENT, TRH 80 μg): 181 ng/mL

Compound: N-tosyl-phenylalanine chloromethyl ketone
- whether it effects a response on the GPI (neither = no response) [2]: neither
